Experimental data reported in the NIST ThermoML archive (doi:10.1007/s10765-009-0602-6).

Experiment: molar heat capacity at constant volume; xn = mol fraction of the nth substance listed
Details: Fluid (supercritical or subcritical phases), isochoric heat capacity, x1 = 0.2607

N [ammonia] + O
Details | molar heat capacity at constant volume [J/K/mol]
605.3 K, Mass density=329 kg/m3 | 82.4
605.39 K, Mass density=147.43 kg/m3 | 55.23
605.39 K, Mass density=329 kg/m3 | 83.73
605.47 K, Mass density=147.43 kg/m3 | 52.57
605.56 K, Mass density=329 kg/m3 | 84.16
605.64 K, Mass density=147.43 kg/m3 | 54.75
605.73 K, Mass density=147.43 kg/m3 | 55.07
605.82 K, Mass density=147.43 kg/m3 | 55.82
605.9 K, Mass density=147.43 kg/m3 | 54.48
606.33 K, Mass density=195.99 kg/m3 | 62.19
606.41 K, Mass density=195.99 kg/m3 | 62.19
606.41 K, Mass density=376.89 kg/m3 | 80.52
606.5 K, Mass density=195.99 kg/m3 | 62.44
606.58 K, Mass density=376.89 kg/m3 | 81.48
606.66 K, Mass density=195.99 kg/m3 | 62.01
606.67 K, Mass density=376.89 kg/m3 | 83.04
606.75 K, Mass density=195.99 kg/m3 | 62.31
606.76 K, Mass density=376.89 kg/m3 | 82.08
606.84 K, Mass density=195.99 kg/m3 | 62.12
606.84 K, Mass density=376.89 kg/m3 | 79.68
607.69 K, Mass density=342.18 kg/m3 | 76.36
607.78 K, Mass density=309.95 kg/m3 | 83.5
607.78 K, Mass density=342.18 kg/m3 | 81.1
607.86 K, Mass density=342.18 kg/m3 | 78.56
607.86 K, Mass density=376.89 kg/m3 | 79.35
607.87 K, Mass density=309.95 kg/m3 | 80.85
607.95 K, Mass density=309.95 kg/m3 | 86.43
607.95 K, Mass density=342.18 kg/m3 | 76.04
607.95 K, Mass density=376.89 kg/m3 | 80.25
608.04 K, Mass density=309.95 kg/m3 | 82.99
608.04 K, Mass density=376.89 kg/m3 | 78.87
608.12 K, Mass density=376.89 kg/m3 | 77.04
608.19 K, Mass density=160.07 kg/m3 | 52.92
608.21 K, Mass density=309.95 kg/m3 | 84.23
608.21 K, Mass density=376.89 kg/m3 | 75.92
608.29 K, Mass density=376.89 kg/m3 | 79.42
608.38 K, Mass density=376.89 kg/m3 | 76.18
608.4 K, Mass density=160.07 kg/m3 | 53.56
608.54 K, Mass density=160.07 kg/m3 | 51.75
608.63 K, Mass density=160.07 kg/m3 | 53.4
608.72 K, Mass density=160.07 kg/m3 | 52.1
608.81 K, Mass density=160.07 kg/m3 | 52.48
608.9 K, Mass density=160.07 kg/m3 | 52.35
609.06 K, Mass density=195.99 kg/m3 | 62.14
609.14 K, Mass density=195.99 kg/m3 | 62.71
609.23 K, Mass density=195.99 kg/m3 | 62.28
609.3 K, Mass density=195.99 kg/m3 | 63.31
609.4 K, Mass density=195.99 kg/m3 | 62.65
609.4 K, Mass density=320.33 kg/m3 | 87.43
609.48 K, Mass density=195.99 kg/m3 | 63.19
609.48 K, Mass density=294.44 kg/m3 | 91.17
609.48 K, Mass density=320.33 kg/m3 | 84.26
609.57 K, Mass density=294.44 kg/m3 | 89.27
609.57 K, Mass density=320.33 kg/m3 | 85.97
609.65 K, Mass density=294.44 kg/m3 | 87.71
609.65 K, Mass density=308.35 kg/m3 | 76.86
609.65 K, Mass density=320.33 kg/m3 | 80.69
609.74 K, Mass density=195.99 kg/m3 | 62.31
609.74 K, Mass density=294.44 kg/m3 | 89.93
609.74 K, Mass density=320.33 kg/m3 | 83.43
609.82 K, Mass density=294.44 kg/m3 | 89.02
609.82 K, Mass density=308.35 kg/m3 | 74.71
609.91 K, Mass density=308.35 kg/m3 | 78.67
609.99 K, Mass density=308.35 kg/m3 | 77.82
610.08 K, Mass density=308.35 kg/m3 | 76.77
610.17 K, Mass density=312.91 kg/m3 | 84.03
610.25 K, Mass density=312.91 kg/m3 | 83.02
610.33 K, Mass density=312.91 kg/m3 | 81.99
610.42 K, Mass density=311.19 kg/m3 | 84.41
610.42 K, Mass density=312.91 kg/m3 | 81.69
610.51 K, Mass density=311.19 kg/m3 | 81.05
610.51 K, Mass density=312.91 kg/m3 | 81.85
610.53 K, Mass density=311.19 kg/m3 | 82.17
610.59 K, Mass density=307.35 kg/m3 | 83.84
610.59 K, Mass density=312.91 kg/m3 | 80.77
610.68 K, Mass density=307.35 kg/m3 | 83.61
610.76 K, Mass density=307.35 kg/m3 | 85.1
610.77 K, Mass density=311.19 kg/m3 | 80
610.84 K, Mass density=311.19 kg/m3 | 82.42
610.85 K, Mass density=307.35 kg/m3 | 81.92
610.93 K, Mass density=307.35 kg/m3 | 80.84
611.02 K, Mass density=301.94 kg/m3 | 85.7
611.02 K, Mass density=307.35 kg/m3 | 83.41
611.1 K, Mass density=301.94 kg/m3 | 86.38
611.1 K, Mass density=307.35 kg/m3 | 81.26
611.19 K, Mass density=299.79 kg/m3 | 81.78
611.23 K, Mass density=301.94 kg/m3 | 84.69
611.27 K, Mass density=299.79 kg/m3 | 82.1
611.35 K, Mass density=230.31 kg/m3 | 80.27
611.35 K, Mass density=301.94 kg/m3 | 83.16
611.36 K, Mass density=299.79 kg/m3 | 80.3
611.44 K, Mass density=230.31 kg/m3 | 81.01
611.44 K, Mass density=299.79 kg/m3 | 81.57
611.44 K, Mass density=301.94 kg/m3 | 83.38
611.52 K, Mass density=230.31 kg/m3 | 77.59
611.53 K, Mass density=299.79 kg/m3 | 80.94
611.57 K, Mass density=230.31 kg/m3 | 78.33
611.61 K, Mass density=299.79 kg/m3 | 79.86
611.61 K, Mass density=301.94 kg/m3 | 85.13
611.8 K, Mass density=230.31 kg/m3 | 77.07
612.29 K, Mass density=342.18 kg/m3 | 78.23
612.46 K, Mass density=376.89 kg/m3 | 76.4
612.55 K, Mass density=342.18 kg/m3 | 77.21
612.55 K, Mass density=376.89 kg/m3 | 78.49
612.63 K, Mass density=342.18 kg/m3 | 78.71
612.63 K, Mass density=376.89 kg/m3 | 74.83
612.8 K, Mass density=342.18 kg/m3 | 78.26
612.8 K, Mass density=376.89 kg/m3 | 75.58
612.89 K, Mass density=376.89 kg/m3 | 77.5
615.18 K, Mass density=160.07 kg/m3 | 57.18
615.27 K, Mass density=160.07 kg/m3 | 57.36
615.35 K, Mass density=160.07 kg/m3 | 59.17
615.52 K, Mass density=160.07 kg/m3 | 57.77
615.61 K, Mass density=160.07 kg/m3 | 57.15
615.69 K, Mass density=160.07 kg/m3 | 58.32
615.78 K, Mass density=160.07 kg/m3 | 59.81
615.86 K, Mass density=311.19 kg/m3 | 80.59
615.94 K, Mass density=311.19 kg/m3 | 82.26
615.94 K, Mass density=312.91 kg/m3 | 84.14
616.03 K, Mass density=311.19 kg/m3 | 78.26
616.03 K, Mass density=312.91 kg/m3 | 81.62
616.2 K, Mass density=309.95 kg/m3 | 81.9
616.2 K, Mass density=311.19 kg/m3 | 79.08
616.2 K, Mass density=312.91 kg/m3 | 78.12
616.24 K, Mass density=329 kg/m3 | 79.1
616.28 K, Mass density=309.95 kg/m3 | 81.26
616.29 K, Mass density=312.91 kg/m3 | 77.14
616.37 K, Mass density=309.95 kg/m3 | 80.5
616.37 K, Mass density=311.19 kg/m3 | 78.05
616.37 K, Mass density=312.91 kg/m3 | 80.69
616.45 K, Mass density=309.95 kg/m3 | 78.62
616.45 K, Mass density=329 kg/m3 | 75.46
616.54 K, Mass density=329 kg/m3 | 77.16
616.55 K, Mass density=309.95 kg/m3 | 82.93
616.62 K, Mass density=329 kg/m3 | 76.27
616.69 K, Mass density=299.79 kg/m3 | 82.29
616.71 K, Mass density=329 kg/m3 | 76.77
616.84 K, Mass density=299.79 kg/m3 | 80.34
616.95 K, Mass density=299.79 kg/m3 | 81.41
617.05 K, Mass density=299.79 kg/m3 | 82.13
617.13 K, Mass density=299.79 kg/m3 | 79.98
617.31 K, Mass density=299.79 kg/m3 | 80.5
617.46 K, Mass density=299.79 kg/m3 | 80.93
618.23 K, Mass density=342.18 kg/m3 | 78.08
618.32 K, Mass density=342.18 kg/m3 | 77.48
618.5 K, Mass density=342.18 kg/m3 | 78.3
618.57 K, Mass density=342.18 kg/m3 | 78.49
618.66 K, Mass density=342.18 kg/m3 | 76.77
619.76 K, Mass density=297.6 kg/m3 | 76.26
619.93 K, Mass density=297.6 kg/m3 | 75.1
620.01 K, Mass density=297.6 kg/m3 | 77.64
620.1 K, Mass density=297.6 kg/m3 | 76.82
624.74 K, Mass density=160.07 kg/m3 | 61.66
624.83 K, Mass density=160.07 kg/m3 | 63.49
624.99 K, Mass density=160.07 kg/m3 | 62.99
625.08 K, Mass density=160.07 kg/m3 | 60.95
625.16 K, Mass density=160.07 kg/m3 | 64.25
633.07 K, Mass density=160.07 kg/m3 | 67.64
633.16 K, Mass density=160.07 kg/m3 | 68.71
633.33 K, Mass density=160.07 kg/m3 | 67.18
633.49 K, Mass density=160.07 kg/m3 | 68.49
633.58 K, Mass density=160.07 kg/m3 | 67.41
633.66 K, Mass density=160.07 kg/m3 | 67.98
